Target: T1, AlaRS E337K binding to GST-Nrp1 b1 (Homo sapiens, UniProt P49588, E337K)
T1 construct: made in house; host or cells: E. coli BL21 (DE3), pET-21a for AlaRS
T1 sequence (P49588 1-968 E337K): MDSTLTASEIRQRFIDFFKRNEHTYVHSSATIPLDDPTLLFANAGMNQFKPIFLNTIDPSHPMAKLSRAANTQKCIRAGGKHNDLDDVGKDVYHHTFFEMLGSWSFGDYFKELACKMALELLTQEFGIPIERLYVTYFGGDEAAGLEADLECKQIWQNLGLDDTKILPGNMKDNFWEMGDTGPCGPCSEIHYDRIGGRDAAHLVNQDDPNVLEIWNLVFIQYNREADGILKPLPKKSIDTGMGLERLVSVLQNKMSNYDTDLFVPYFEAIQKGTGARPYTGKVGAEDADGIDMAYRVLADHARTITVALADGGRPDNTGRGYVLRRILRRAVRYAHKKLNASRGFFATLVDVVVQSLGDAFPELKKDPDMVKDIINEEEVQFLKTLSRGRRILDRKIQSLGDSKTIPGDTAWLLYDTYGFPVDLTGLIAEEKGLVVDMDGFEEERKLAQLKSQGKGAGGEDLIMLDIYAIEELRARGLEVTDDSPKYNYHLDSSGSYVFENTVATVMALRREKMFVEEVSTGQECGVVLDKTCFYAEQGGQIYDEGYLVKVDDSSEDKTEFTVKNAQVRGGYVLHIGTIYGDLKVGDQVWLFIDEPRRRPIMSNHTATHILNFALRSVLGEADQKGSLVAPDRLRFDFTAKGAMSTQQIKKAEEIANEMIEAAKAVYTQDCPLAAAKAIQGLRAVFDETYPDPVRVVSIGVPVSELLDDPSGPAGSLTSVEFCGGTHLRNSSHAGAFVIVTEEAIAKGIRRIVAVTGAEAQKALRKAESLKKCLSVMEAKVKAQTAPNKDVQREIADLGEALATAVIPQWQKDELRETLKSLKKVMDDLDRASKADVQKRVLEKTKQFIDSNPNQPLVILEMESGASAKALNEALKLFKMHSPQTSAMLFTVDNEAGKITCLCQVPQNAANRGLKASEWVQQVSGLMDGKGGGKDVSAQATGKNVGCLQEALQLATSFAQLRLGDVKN
Assay: GST pull down assay
Conditions: 20 µM Tanshinone I, ImageJ, average of three repeats

- Mean density band (E337K), relative quantification of AlaRS mutant pulled down: 0.90
Structure (SMILES): Cc1coc2c1C(=O)C(=O)c1c-2ccc2c(C)cccc12 [Tanshinone I]

Source: PMC11509018, “Evaluation of the Role of Tanshinone I in an In Vitro System of Charcot-Marie-Tooth Disease Type 2N” (International Journal of Molecular Sciences, 2024)
